This is an account of results in patent publication US4417052A, “Phenyl-lower-alkyl piperidines and pyrrolidines” (Sterling Drug Inc., priority 1981, dated 1983).

The assay concerns carrageenin-induced foot edema. Briefly: inhibition of carrageenin-induced foot edema test (C.E.). Format: in vivo. Conditions: oral; for inhibition in vivo at 4 µmol/kg: dose 0.004 millimoles/kg; for inhibition in vivo at 20 µmol/kg: dose 0.02 millimoles/kg; for C.E. percent inhibition (Table B): formula V amides. As for the experimental part: Anti-inflammatory activity was determined using (1) the inhibition of carrageenin-induced foot edema test essentially described by Winter et al., Proc. Soc. Exp. Biol. and Med. 111, 554 (1962) as modified by Van Arman et al., J. Pharmacol. Exptl. Therap. 150, 328 (1965) and (2) a modification of the inhibition of adjuvant-induced arthritis test described by Pierson, J. Chronic Diseases 16, 863 (1963) and Glenn et al., Am. J. Vet. Res. 26, 1180 (1965).
The N-{2-,3- and 4-[R1 -(phenyl)-C(=X)]-phenyl-lower-alkyl}amines of formulas I, Ia and Ib of the invention have been tested in the carrageenin edema (CE) and adjuvant arthritis (AA) tests and found to have anti-inflammatory activity. For comparative purposes, data obtained in the carrageenin edema test on the reference compound (designated "Ref."), 4[(3-benzoylphenyl)methyl]morpholine, disclosed in French Patent 1,549,342, are also given. All data were obtained on oral administration.
A general note: In the carrageenan paw model, swelling and tenderness develop within hours.

The mark [1] stands for this setting: read-out: C.E. percent inhibition.
The mark [2] stands for this setting: dose 0.08 millimoles/kg, read-out: C.E. percent inhibition.
Where [3] appears, read: dose 0.324 millimoles/kg, read-out: C.E. percent inhibition.

Structures can show the parent of a compound that is named as a salt.

As for `OC(c1ccccc1)c1cccc(CCN2CCCCC2CC2CCCCC2)c1` (stereo not drawn) [Example 1A, 2-Cyclohexylmethyl-1-{2-[3-(α-hydroxybenzyl)phenyl]ethyl}piperidine], under setting [1], the inhibition in vivo at 4 µmol/kg was found to be 0% and the inhibition in vivo at 20 µmol/kg was 0%. In addition, the inhibition in vivo at 80 µmol/kg under setting [2] came to 51%. Under setting [3], the inhibition in vivo at 324 µmol/kg is 62%.
Regarding `O=C(c1ccccc1)c1cccc(CCN2CCOCC2)c1` [Example 1C, 4-[2-(3-Benzoylphenyl)ethyl]morpholine hydrochloride monohydrate], under setting [2], the inhibition in vivo at 80 µmol/kg turned out to be 40%. Under setting [3], the inhibition in vivo at 324 µmol/kg was determined as 77%.
The corresponding values for `CN(C)CCCNCCc1cccc(C(=O)c2ccccc2)c1` [Example 1D, N-[2-(3-Benzoylphenyl)ethyl]-N-(3-dimethylaminopropyl)amine dihydrochloride hemi-hydrate] are 36% and 65%.
`CC(C(=O)N1CCN(C2CCCC2)CC1)c1cccc(C(=O)c2ccccc2)c1.Cl` (stereo not drawn) [Example 1J, 4-Cyclopentyl-1-[α-(3-benzoylphenyl)propionyl]piperazine hydrochloride]: the “C.E. percent inhibition (Table B)” value is, setting by setting: (dose 0.08 millimoles/kg) 18%; (dose 0.324 millimoles/kg) 72%.
Turning to `CC(CN1CCCCC1CC1CCCCC1)c1cccc(C(O)c2cccc(Cl)c2)c1` (stereo not drawn) [Example 3A, 2-Cyclohexylmethyl-1-{2-[3-(α-hydroxy-3-chlorobenzyl)phenyl]propyl}piperidine], under setting [1], the inhibition in vivo at 4 µmol/kg amounted to 0% and the inhibition in vivo at 20 µmol/kg is 0%. Besides, under setting [2], the inhibition in vivo at 80 µmol/kg was 34%. In addition, the inhibition in vivo at 324 µmol/kg under setting [3] was 75%.
Regarding `CC(CN1CCCCC1CCCC1CCCCC1)c1cccc(C(O)c2ccccc2)c1` (stereo not drawn) [Example 3E, 2-(3-Cyclohexylpropyl)-1-{2-[3-(α-hydroxybenzyl)phenyl]propyl}piperidine], under setting [1], the inhibition in vivo at 4 µmol/kg was found to be 14% and the inhibition in vivo at 20 µmol/kg worked out at 34%.
As to `Cc1ccc(C(O)c2cccc(C(C)CN3CCCCC3CC3CCCCC3)c2)cc1` (stereo not drawn) [Example 4, 2-cyclohexylmethyl-1-{2-[3-(α-hydroxy-4-methylbenzyl)phenyl]propyl}piperidine], under setting [1], the inhibition in vivo at 4 µmol/kg stood at 0% and the inhibition in vivo at 20 µmol/kg came out at 1%. Moreover, the inhibition in vivo at 80 µmol/kg under setting [2] was 18%. For the same compound, the inhibition in vivo at 324 µmol/kg under setting [3] is 72%.
For `CC(CN1CCCCC1CC1CCCCC1)c1cccc(C(O)c2c(Cl)cccc2Cl)c1` (stereo not drawn) [Example 5A, 2-Cyclohexylmethyl-1-{2-[3-(α-hydroxy-2,6-dichlorobenzyl)phenyl]propyl}piperidine], under setting [1], the inhibition in vivo at 4 µmol/kg turned out to be 0% and the inhibition in vivo at 20 µmol/kg is 0%. The inhibition in vivo at 80 µmol/kg under setting [2] was found to be 58%. Further, under setting [3], the inhibition in vivo at 324 µmol/kg is 68%.
Consider `CC(CN1CCCCC1CC1CCCCC1)c1cccc(C(C)(O)c2ccccc2)c1` (stereo not drawn) [Example 6, 2-cyclohexylmethyl-1-{2-[3-(α-hydroxy-α-methylbenzyl)phenyl]propyl}piperidine], for which, under setting [1], the inhibition in vivo at 4 µmol/kg was 14% and the inhibition in vivo at 20 µmol/kg came out at 5%. The inhibition in vivo at 80 µmol/kg under setting [2] amounted to 28%. For the same compound, the inhibition in vivo at 324 µmol/kg under setting [3] turned out to be 55%.
For `Cc1ccc(C(=O)c2cccc(C(C)CN3CCCCC3CC3CCCCC3)c2)cc1` (centres unmarked) [Example 7C, 2-Cyclohexylmethyl-1-{2-[3-(4-methylbenzoyl)phenyl]propyl}piperidine], under setting [1], the inhibition in vivo at 4 µmol/kg amounted to 0% and the inhibition in vivo at 20 µmol/kg amounted to 10%. The inhibition in vivo at 80 µmol/kg under setting [2] turned out to be 58%. Also, the inhibition in vivo at 324 µmol/kg under setting [3] is 75%.
`CC1CN(CC(C)c2cccc(C(=O)c3ccccc3)c2)CC(C)O1` (centres unmarked) [Example 7J, 2,6-Dimethyl-4-[2-(3-benzoylphenyl)propyl]morpholine cyclohexanesulfamate]: under setting [2], the inhibition in vivo at 80 µmol/kg stood at 62%. Besides, the inhibition in vivo at 324 µmol/kg under setting [3] was 66%.
`Cc1ccccc1C(=O)c1cccc(C(C)CN2CCCCC2CC2CCCCC2)c1` (centres unmarked) [Example 8, 2-cyclohexylmethyl-1-{2-[3-(2-methylbenzoyl)phenyl]propyl}piperidine]: under setting [1], the inhibition in vivo at 4 µmol/kg is 2% and the inhibition in vivo at 20 µmol/kg was 21%. Also, under setting [2], the inhibition in vivo at 80 µmol/kg is 33%. Besides, the inhibition in vivo at 324 µmol/kg under setting [3] came to 68%.
In the case of `Cc1cccc(C(=O)c2cccc(C(C)CN3CCCCC3CC3CCCCC3)c2)c1` (centres unmarked) [Example 9, 2-cyclohexylmethyl-1-{2-[3-(3-methylbenzoyl)phenyl]propyl}piperidine], under setting [1], the inhibition in vivo at 4 µmol/kg is 0% and the inhibition in vivo at 20 µmol/kg turned out to be 0%. Further, under setting [2], the inhibition in vivo at 80 µmol/kg amounted to 21%. Further, the inhibition in vivo at 324 µmol/kg under setting [3] was 47%.
For the compound `CC(CN1CCCCC1CC1CCCCC1)c1cccc(C(C)c2ccccc2)c1` (stereo not drawn) [Example 11, 2-cyclohexylmethyl-1-{2-[3-(α-methylbenzyl)phenyl]propyl}piperidine], under setting [1], the inhibition in vivo at 4 µmol/kg came to 0% and the inhibition in vivo at 20 µmol/kg turned out to be 15%. For the same compound, the inhibition in vivo at 80 µmol/kg under setting [2] came to 29%. Also, the inhibition in vivo at 324 µmol/kg under setting [3] was 64%.
Consider `ON=C(c1ccccc1)c1cccc(CCN2CCOCC2)c1` [Example 15A, 4-[2-(3-Benzoylphenyl)ethyl]morpholine oxime], for which, under setting [2], the inhibition in vivo at 80 µmol/kg is 27%. The inhibition in vivo at 324 µmol/kg under setting [3] came to 29%.
Consider `NC(c1ccccc1)c1cccc(CCN2CCOCC2)c1` (stereo not drawn) [Example 16A, 4-{2-[3-(α-Aminobenzyl)phenyl]ethyl}morpholine dihydrochloride], for which, under setting [2], the inhibition in vivo at 80 µmol/kg was 27%. In addition, under setting [3], the inhibition in vivo at 324 µmol/kg was found to be 39%.
For `CC(CN1CCOCC1)c1cccc(C(N)c2ccccc2)c1` (stereo not drawn) [Example 16C, 4-{2-[3-(α-Aminobenzyl)phenyl]propyl}morpholine dihydrochloride], the inhibition in vivo at 80 µmol/kg under setting [2] worked out at 49%. The inhibition in vivo at 324 µmol/kg under setting [3] worked out at 84%.
On to `C=C(c1ccccc1)c1cccc(C(C)CN2CCCCC2CC2CCCCC2)c1` (centres unmarked) [Example 17, 2-cyclohexylmethyl-1-{2-[3-(1-phenyl-1-vinyl)phenyl]propyl}piperidine], for which, under setting [1], the inhibition in vivo at 4 µmol/kg turned out to be 9% and the inhibition in vivo at 20 µmol/kg is 16%. For the same compound, the inhibition in vivo at 80 µmol/kg under setting [2] turned out to be 47%. Moreover, the inhibition in vivo at 324 µmol/kg under setting [3] was 67%.
As for `O=C(c1ccccc1)c1cccc(CCN2CCCCC2CC2CCCCC2)c1` (centres unmarked) [Example 20A, 2-Cyclohexylmethyl-1-[2-(3-benzoylphenyl)ethyl]piperidine], the inhibition in vivo at 20 µmol/kg under setting [1] was 25%. Further, the inhibition in vivo at 40 µmol/kg (dose 0.04 millimoles/kg, read-out: C.E. percent inhibition) was 9%. In addition, the inhibition in vivo at 80 µmol/kg under setting [2] turned out to be 46%. Also, the inhibition in vivo at 324 µmol/kg under setting [3] was determined as 70%.
For `CC(CN1CCCCC1CC1CCCCC1)c1cccc(C(=O)c2cccc(Cl)c2)c1` (centres unmarked) [Example 20B, 2-Cyclohexylmethyl-1-{2-[3-(3-chlorobenzoyl)phenyl]propyl}piperidine], under setting [1], the inhibition in vivo at 4 µmol/kg was determined as 14% and the inhibition in vivo at 20 µmol/kg was found to be 0%. The inhibition in vivo at 80 µmol/kg under setting [2] was found to be 22%. In addition, under setting [3], the inhibition in vivo at 324 µmol/kg was determined as 65%.
`CC(CN1CCCCC1CC1CCCCC1)c1cccc(C(=O)c2ccc(Cl)c(Cl)c2)c1` (centres unmarked) [Example 20C, 2-Cyclohexylmethyl-1-{2-[3-(3,4-dichlorobenzoyl)phenyl]propyl}piperidine]: under setting [1], the inhibition in vivo at 4 µmol/kg turned out to be 17% and the inhibition in vivo at 20 µmol/kg was found to be 15%. In addition, the inhibition in vivo at 80 µmol/kg under setting [2] stood at 19%. Further, the inhibition in vivo at 324 µmol/kg under setting [3] was determined as 51%.
